Test results reported in paper PMC7237647, “Synthesis, in vitro and in vivo evaluation of ^11C-O-methylated arylpiperazines as potential serotonin 1A (5-HT1A) receptor antagonist radiotracers” (EJNMMI Radiopharmacy and Chemistry, 2020).

How the values were obtained:
[1] = Dynamic PET/MR imaging of brain uptake in rats; type: in vivo; details: rat; for Brain uptake: dynamic PET, bolus i.v. injection, 60 min scan
Protocol: […]. All experimental procedures were carried out in accordance with the Institutional Animal Care Committee ethical guidelines (Animal Use Protocol # 783).
Adult male Sprague Dawley rats (500–600 g, 8–12 months old) were anesthetized by isoflurane (5% induction; O2 rate: 2 L/min) and catheterized in the lateral tail vein using a Surflash Polyurethane IV Catheter 24G × 3/4″(Terumo; Somerset, New Jersey, US). Following insertion, the catheter was flushed with heparinized saline (30 IU/ml, ~ 200 μl). The animal was transferred to the scanner bed in prone position, the head immobilized in a flat skull position for the duration of the acquisition using built in ear and bite bars; the scanner bed temperature was initially set at 40 °C but was subject to alteration based on animals’ body temperature during the experiment. Anesthesia was maintained throughout the PET/MR scanning procedure (isoflurane: 1.5–2%; O2 rate: 1 L/min) and the animals’ body temperature and respiration parameters were closely monitored.
Imaging studies were conducted on a nanoScan PET/MRI 3 T tomograph (Mediso; Budapest, Hungary). At first, a scout MR was acquired for subsequent PET field of view (FOV) positioning. MR images were used to define anatomical regions of interest (ROIs) through PET/MRI image co-registration. MR sequences included: material map T1-weighted 2D-gradient echo (GRE, TR 354 ms, TE 3.64) multi-FOV sequence for PET and MR co-registration and PET scatter and attenuation corrections, and T2-weighted 2D-fast spin-echo (FSE, TR 3971 ms, TE 87.5 ms) sequence for co-registration with standard rat brain MR template and atlas of Schwarz et al. ([2006]), and PET ROI analyses. MR images were acquired either before or after PET imaging.
[…]. mass injected for [^11C]1–3: 0.15–0.40 nmol/kg), a 60 min emission list mode scan was acquired with an energy window of 400–600 keV.
The acquired list mode data was sorted into 33, 3D (3 × 5 s, 3 × 15 s, 3 × 20s, 7 × 60s and 17 × 180 s) true sinograms (ring difference 84). The 3D sinograms were converted in 2D sinograms using fourier-rebinning (Defrise et al. [1997]), during which corrections were included for detector geometry and efficiencies, attenuation and scatter, prior to image reconstruction using a 2D–filtered back projection (FBKP) with an Hann filter at a cutoff of 0.50 cm-1. A static image of the complete emission acquisition was reconstructed with the manufacturer’s proprietary iterative 3D algorithm (6 subsets, 4 iterations). All image data were corrected for dead-time and decay corrected to the start of acquisition. The dynamic FBKP images were used for the extraction of time-activity curves (TACs). The static iterative image was used for PET and MR co-registration and also for co-registration with standard rat brain MR template and atlas (Schwarz et al. [2006]). Image analyses and extraction of regional brain TACs were performed using Amide software (v1.0.4) (Loening and Gambhir [2003]). Standardized uptake values (SUV) were calculated by normalizing regional radioactivity for injected radioactivity and body weight of the animal. Regional brain BP were obtained by using simplified reference tissue model (SRTM) of Lammertsma and Hume ([1996]), with averaged TACs of left and right cerebellum as the reference. […] Percentages of blocking were calculated by the equation: Blocking% = 100 x (BPblocking – BPbaseline)/BPbaseline.

5-HT1B = molecular target: T1, 5-HT1B (Homo sapiens, UniProt P28222); assay: NIMH-PDSP radioligand binding assay, 5-HT1B
T1 construct: NIMH-PDSP
Protocol: (§1) . Cross selectivity for biogenic amines, neurotransmitter receptors, and transporters were determined by radioligand binding assays through NIMH- PDSP using validated and established protocols ([NIMH-PDSP Assay Protocol Book Version III, March 2018]).

5-HT1E = molecular target: T2, 5-HT1E (Homo sapiens, UniProt P28566); assay: NIMH-PDSP radioligand binding assay, 5-HT1E
T2 construct: NIMH-PDSP
Protocol: as §1

5-HT1D = molecular target: T3, 5-HT1D (Homo sapiens, UniProt P28221); assay: NIMH-PDSP radioligand binding assay, 5-HT1D
T3 construct: NIMH-PDSP
Protocol: as §1

5-HT2B = molecular target: T4, 5-HT2B (Homo sapiens, UniProt P41595); assay: NIMH-PDSP radioligand binding assay, 5-HT2B
T4 construct: NIMH-PDSP
Protocol: as §1

5-HT3 = molecular target: T5, 5-HT3 (Homo sapiens, UniProt P46098); assay: NIMH-PDSP radioligand binding assay, 5-HT3
T5 construct: NIMH-PDSP
T5 sequence (P46098 24-478): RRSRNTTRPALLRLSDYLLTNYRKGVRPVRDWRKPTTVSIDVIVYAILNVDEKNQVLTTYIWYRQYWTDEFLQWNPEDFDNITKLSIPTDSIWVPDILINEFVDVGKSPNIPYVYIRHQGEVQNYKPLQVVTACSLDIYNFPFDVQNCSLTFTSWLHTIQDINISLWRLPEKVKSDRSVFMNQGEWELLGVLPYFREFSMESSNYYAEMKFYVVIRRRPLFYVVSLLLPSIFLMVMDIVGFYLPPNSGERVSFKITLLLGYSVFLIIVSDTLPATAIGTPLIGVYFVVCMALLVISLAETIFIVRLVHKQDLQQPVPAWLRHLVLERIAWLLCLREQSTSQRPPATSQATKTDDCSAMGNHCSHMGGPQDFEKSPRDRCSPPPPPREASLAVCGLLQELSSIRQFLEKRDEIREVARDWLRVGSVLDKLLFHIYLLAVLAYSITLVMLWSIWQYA
Protocol: as §1

5-HT4 = molecular target: T6, 5-HT4 (Homo sapiens, UniProt Q13639); assay: NIMH-PDSP radioligand binding assay, 5-HT4
T6 construct: NIMH-PDSP
Protocol: as §1

5-HT5a = molecular target: T7, 5-HT5a (Homo sapiens, UniProt P47898); assay: NIMH-PDSP radioligand binding assay, 5-HT5a
T7 construct: NIMH-PDSP
Protocol: as §1

5-HT6 = molecular target: T8, 5-HT6 (Homo sapiens, UniProt P50406); assay: NIMH-PDSP radioligand binding assay, 5-HT6
T8 construct: NIMH-PDSP
Protocol: as §1

D3R = molecular target: T9, D3R (Homo sapiens, UniProt P35462); assay: NIMH-PDSP radioligand binding assay, D3R
T9 construct: NIMH-PDSP
Protocol: as §1

D4R = molecular target: T10, D4R (Homo sapiens, UniProt P21917); assay: NIMH-PDSP radioligand binding assay, D4R
T10 construct: NIMH-PDSP
T10 sequence (P21917 1-419): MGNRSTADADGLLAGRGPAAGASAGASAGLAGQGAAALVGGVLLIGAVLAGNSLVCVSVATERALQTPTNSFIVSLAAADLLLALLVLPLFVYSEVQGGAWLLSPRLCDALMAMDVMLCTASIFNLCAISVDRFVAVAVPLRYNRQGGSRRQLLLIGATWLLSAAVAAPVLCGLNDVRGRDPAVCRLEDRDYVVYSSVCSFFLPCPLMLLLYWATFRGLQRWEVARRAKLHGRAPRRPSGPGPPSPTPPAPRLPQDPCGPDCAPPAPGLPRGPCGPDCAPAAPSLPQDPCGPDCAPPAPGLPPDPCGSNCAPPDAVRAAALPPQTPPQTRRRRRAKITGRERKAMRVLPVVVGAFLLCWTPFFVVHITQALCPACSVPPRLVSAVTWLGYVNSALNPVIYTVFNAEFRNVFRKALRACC
Protocol: as §1

DAT = DAT (Homo sapiens, UniProt Q01959); assay: NIMH-PDSP radioligand binding assay, DAT
Protocol: as §1

NET = NET (Homo sapiens, UniProt P23975); assay: NIMH-PDSP radioligand binding assay, NET
Protocol: as §1

SERT = SERT (Homo sapiens, UniProt P31645); assay: NIMH-PDSP radioligand binding assay, SERT
Protocol: as §1

NOP = molecular target: T11, NOP (Homo sapiens, UniProt P41146); assay: NIMH-PDSP radioligand binding assay, NOP
T11 construct: NIMH-PDSP
Protocol: as §1

PBR = molecular target: T12, PBR (Rattus norvegicus, UniProt P16257); assay: NIMH-PDSP radioligand binding assay, PBR
T12 construct: NIMH-PDSP
Protocol: as §1

Sigma1R = molecular target: T13, Sigma1R (Homo sapiens, UniProt Q99720); assay: NIMH-PDSP radioligand binding assay, Sigma1R
T13 construct: NIMH-PDSP
Protocol: as §1

α1-adrenergic receptors [2] = molecular target: α1-adrenergic receptors; set-up: method as in Chemel et al. [2006]; details: ref Chemel et al. [2006]; cited from earlier work
α1-adrenergic receptors [3] = assay: PET/MR blocking study with prazosin pre-treatment; type: in vivo, Sprague Dawley rats; details: prazosin 2 mg/kg IV 20 min prior to tracer, rat
Protocol: 5-HT1A receptor selectivity of the radiotracer with the most promising brain penetrating properties was further investigated in two separate baseline and pre-treatment (blocking) experiments. A within-subject PET/MR imaging design was employed for baseline and blocking experiments. In the first PET/MR imaging session, brain radiotracer uptake was determined under baseline conditions whereby radiotracer was intravenously administered simultaneously with the start of PET acquisition. The catheter was flushed with heparinized saline (~ 100 μl) and capped to allow blocker/radiotracer injections for the subsequent pre-treatment experiment. Before the start of the second PET measurement, the animals were infused with a suitable blocking agent intravenously 20 min prior to radiotracer injection and concomitant PET acquisition. To confirm target engagement at 5-HT1A receptor, WAY-100635 maleate (Sigma-Aldrich), a potent 5-HT1A receptor antagonist (2 mg/kg) was infused intravenously 20 min before radiotracer injection. In order to further investigate potential off-target binding at α1-adrenergic receptors in vivo, prazosin hydrochloride (Sigma-Aldrich), a potent α1-adrenergic receptor antagonist (2 mg/kg) was infused 20 min before radiotracer injection and PET acquisition.
The acquired list mode data was sorted into 33, 3D (3 × 5 s, 3 × 15 s, 3 × 20s, 7 × 60s and 17 × 180 s) true sinograms (ring difference 84). The 3D sinograms were converted in 2D sinograms using fourier-rebinning (Defrise et al. [1997]), during which corrections were included for detector geometry and efficiencies, attenuation and scatter, prior to image reconstruction using a 2D–filtered back projection (FBKP) with an Hann filter at a cutoff of 0.50 cm-1. A static image of the complete emission acquisition was reconstructed with the manufacturer’s proprietary iterative 3D algorithm (6 subsets, 4 iterations). All image data were corrected for dead-time and decay corrected to the start of acquisition. The dynamic FBKP images were used for the extraction of time-activity curves (TACs). The static iterative image was used for PET and MR co-registration and also for co-registration with standard rat brain MR template and atlas (Schwarz et al. [2006]). Image analyses and extraction of regional brain TACs were performed using Amide software (v1.0.4) (Loening and Gambhir [2003]). Standardized uptake values (SUV) were calculated by normalizing regional radioactivity for injected radioactivity and body weight of the animal. Regional brain BP were obtained by using simplified reference tissue model (SRTM) of Lammertsma and Hume ([1996]), with averaged TACs of left and right cerebellum as the reference. This was performed by using the basis function method (BFM) of Gunn et al. ([1997]) in the package of Turku PET Centre (https://gitlab.utu.fi/vesoik/tpcclib) (Gunn et al. [1997]). Percentages of blocking were calculated by the equation: Blocking% = 100 x (BPblocking – BPbaseline)/BPbaseline.

5-HT1A receptors = molecular target: 5-HT1A receptors; set-up: method as in Yasuno et al. [2006]; details: ref Yasuno et al. [2006]; cited from earlier work
5-HT2B receptors = molecular target: 5-HT2B receptors; set-up: method as in Yasuno et al. [2006]; details: ref Yasuno et al. [2006]; cited from earlier work
[4] = molecular target: alpha-1 (α1) adrenergic receptors; set-up: method as in Yasuno et al. [2006]; details: ref Yasuno et al. [2006]; cited from earlier work
D2 = molecular target: D2; set-up: method as in Yasuno et al. [2006]; details: ref Yasuno et al. [2006]; cited from earlier work
D3 = molecular target: D3; set-up: method as in Yasuno et al. [2006]; details: ref Yasuno et al. [2006]; cited from earlier work
D4 = molecular target: D4; set-up: method as in Yasuno et al. [2006]; details: ref Yasuno et al. [2006]; cited from earlier work

T3 sequence (P28221 whole entry, species assumed): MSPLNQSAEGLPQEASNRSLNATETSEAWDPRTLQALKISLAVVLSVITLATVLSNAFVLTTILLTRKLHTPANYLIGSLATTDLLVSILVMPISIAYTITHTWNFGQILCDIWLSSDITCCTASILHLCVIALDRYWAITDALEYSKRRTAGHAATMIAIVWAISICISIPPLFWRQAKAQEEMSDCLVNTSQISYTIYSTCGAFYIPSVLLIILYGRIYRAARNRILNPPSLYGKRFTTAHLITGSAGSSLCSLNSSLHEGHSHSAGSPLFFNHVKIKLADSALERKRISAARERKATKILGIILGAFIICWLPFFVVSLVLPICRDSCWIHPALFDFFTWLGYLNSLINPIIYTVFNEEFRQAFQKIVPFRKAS
T8 sequence (P50406 whole entry, species assumed): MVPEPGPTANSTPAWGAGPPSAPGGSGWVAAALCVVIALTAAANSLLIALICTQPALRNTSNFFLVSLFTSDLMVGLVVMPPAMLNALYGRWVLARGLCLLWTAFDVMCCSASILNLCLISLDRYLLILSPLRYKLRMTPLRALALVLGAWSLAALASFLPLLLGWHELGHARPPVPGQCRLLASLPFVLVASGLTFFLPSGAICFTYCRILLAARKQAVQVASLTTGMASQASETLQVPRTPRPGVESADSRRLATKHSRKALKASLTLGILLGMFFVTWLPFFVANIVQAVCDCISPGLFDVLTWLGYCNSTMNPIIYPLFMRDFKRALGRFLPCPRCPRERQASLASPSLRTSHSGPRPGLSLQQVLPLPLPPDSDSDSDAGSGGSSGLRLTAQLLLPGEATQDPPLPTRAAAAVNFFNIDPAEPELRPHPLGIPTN
T4 sequence (P41595 whole entry, species assumed): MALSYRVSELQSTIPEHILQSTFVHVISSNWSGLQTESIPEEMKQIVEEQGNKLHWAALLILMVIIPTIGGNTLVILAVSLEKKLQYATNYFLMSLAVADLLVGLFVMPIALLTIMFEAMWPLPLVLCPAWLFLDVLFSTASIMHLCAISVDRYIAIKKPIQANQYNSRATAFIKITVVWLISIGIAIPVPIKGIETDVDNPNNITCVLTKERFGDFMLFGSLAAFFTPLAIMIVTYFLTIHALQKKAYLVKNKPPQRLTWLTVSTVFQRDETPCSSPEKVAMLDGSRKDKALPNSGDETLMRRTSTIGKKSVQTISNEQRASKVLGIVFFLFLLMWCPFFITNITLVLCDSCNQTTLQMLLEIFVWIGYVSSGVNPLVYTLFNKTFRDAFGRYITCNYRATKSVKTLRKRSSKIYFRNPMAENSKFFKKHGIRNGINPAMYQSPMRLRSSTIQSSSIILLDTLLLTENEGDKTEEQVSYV
T7 sequence (P47898 whole entry, species assumed): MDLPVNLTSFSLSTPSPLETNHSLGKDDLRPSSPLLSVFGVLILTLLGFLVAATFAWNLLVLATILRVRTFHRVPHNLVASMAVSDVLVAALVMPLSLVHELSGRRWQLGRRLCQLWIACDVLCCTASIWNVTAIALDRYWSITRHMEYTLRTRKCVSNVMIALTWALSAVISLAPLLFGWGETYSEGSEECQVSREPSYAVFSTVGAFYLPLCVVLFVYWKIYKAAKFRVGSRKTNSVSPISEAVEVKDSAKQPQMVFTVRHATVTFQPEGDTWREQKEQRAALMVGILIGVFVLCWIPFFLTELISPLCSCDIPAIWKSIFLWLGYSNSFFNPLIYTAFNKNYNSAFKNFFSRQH
Sequence of DAT (Q01959 whole entry, species assumed): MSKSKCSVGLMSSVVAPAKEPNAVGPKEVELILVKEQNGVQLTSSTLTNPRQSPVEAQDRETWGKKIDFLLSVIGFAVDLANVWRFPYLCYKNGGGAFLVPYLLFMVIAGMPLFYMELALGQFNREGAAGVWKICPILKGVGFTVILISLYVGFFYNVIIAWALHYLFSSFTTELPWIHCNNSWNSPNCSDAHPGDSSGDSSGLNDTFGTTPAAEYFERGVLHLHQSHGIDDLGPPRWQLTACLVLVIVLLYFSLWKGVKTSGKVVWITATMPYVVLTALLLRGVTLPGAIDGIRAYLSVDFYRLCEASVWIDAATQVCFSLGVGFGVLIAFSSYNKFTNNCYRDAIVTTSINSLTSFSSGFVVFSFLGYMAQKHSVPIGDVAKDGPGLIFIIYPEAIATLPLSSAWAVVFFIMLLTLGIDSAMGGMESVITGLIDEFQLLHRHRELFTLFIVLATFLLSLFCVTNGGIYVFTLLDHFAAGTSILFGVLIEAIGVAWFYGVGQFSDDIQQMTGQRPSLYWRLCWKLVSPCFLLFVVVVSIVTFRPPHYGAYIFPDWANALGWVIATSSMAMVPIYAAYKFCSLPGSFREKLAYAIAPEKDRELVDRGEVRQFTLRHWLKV
T6 sequence (Q13639 whole entry, species assumed): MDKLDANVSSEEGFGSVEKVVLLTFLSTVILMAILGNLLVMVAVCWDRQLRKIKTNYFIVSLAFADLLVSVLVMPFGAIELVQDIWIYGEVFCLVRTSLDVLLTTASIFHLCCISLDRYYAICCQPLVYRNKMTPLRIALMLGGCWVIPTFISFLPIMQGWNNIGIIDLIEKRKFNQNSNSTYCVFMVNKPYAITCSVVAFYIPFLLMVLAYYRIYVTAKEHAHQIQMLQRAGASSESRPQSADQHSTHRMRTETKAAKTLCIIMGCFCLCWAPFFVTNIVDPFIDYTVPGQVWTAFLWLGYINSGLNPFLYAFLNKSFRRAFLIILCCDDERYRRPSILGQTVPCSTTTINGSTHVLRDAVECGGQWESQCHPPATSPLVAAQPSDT
Sequence of NET (P23975 whole entry): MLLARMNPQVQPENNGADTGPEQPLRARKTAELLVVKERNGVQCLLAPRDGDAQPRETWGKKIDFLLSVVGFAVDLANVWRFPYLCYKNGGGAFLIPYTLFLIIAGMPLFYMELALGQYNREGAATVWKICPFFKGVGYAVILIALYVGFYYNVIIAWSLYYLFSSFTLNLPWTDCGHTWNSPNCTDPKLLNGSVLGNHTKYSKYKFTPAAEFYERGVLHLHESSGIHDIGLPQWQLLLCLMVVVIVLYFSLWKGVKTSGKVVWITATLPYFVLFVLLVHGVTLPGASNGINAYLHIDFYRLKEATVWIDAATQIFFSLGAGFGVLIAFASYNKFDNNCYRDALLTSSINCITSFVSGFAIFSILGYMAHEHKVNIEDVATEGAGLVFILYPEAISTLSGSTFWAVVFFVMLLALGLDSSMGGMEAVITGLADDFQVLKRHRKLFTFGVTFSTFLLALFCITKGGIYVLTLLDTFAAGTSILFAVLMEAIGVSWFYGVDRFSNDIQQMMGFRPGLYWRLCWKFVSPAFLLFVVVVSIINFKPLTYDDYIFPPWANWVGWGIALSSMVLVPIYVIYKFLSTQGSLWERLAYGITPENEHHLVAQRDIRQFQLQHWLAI
T13 sequence (Q99720 whole entry, species assumed): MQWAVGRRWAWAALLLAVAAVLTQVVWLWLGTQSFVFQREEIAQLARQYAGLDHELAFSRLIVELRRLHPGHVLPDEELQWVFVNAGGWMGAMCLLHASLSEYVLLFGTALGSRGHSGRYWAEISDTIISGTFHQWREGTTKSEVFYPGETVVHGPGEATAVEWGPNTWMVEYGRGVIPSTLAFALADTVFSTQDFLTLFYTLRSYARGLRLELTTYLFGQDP
T2 sequence (P28566 whole entry, species assumed): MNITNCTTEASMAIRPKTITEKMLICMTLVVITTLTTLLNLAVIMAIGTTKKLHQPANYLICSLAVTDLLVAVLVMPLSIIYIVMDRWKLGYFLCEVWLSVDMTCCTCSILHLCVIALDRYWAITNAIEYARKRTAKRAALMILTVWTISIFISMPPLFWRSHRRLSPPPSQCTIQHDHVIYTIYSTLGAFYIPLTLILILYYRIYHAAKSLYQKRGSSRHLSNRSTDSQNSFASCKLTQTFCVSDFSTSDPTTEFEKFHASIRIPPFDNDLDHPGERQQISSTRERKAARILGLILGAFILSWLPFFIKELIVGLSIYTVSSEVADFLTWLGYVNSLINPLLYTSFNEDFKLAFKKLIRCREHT
Sequence of SERT (P31645 whole entry, species assumed): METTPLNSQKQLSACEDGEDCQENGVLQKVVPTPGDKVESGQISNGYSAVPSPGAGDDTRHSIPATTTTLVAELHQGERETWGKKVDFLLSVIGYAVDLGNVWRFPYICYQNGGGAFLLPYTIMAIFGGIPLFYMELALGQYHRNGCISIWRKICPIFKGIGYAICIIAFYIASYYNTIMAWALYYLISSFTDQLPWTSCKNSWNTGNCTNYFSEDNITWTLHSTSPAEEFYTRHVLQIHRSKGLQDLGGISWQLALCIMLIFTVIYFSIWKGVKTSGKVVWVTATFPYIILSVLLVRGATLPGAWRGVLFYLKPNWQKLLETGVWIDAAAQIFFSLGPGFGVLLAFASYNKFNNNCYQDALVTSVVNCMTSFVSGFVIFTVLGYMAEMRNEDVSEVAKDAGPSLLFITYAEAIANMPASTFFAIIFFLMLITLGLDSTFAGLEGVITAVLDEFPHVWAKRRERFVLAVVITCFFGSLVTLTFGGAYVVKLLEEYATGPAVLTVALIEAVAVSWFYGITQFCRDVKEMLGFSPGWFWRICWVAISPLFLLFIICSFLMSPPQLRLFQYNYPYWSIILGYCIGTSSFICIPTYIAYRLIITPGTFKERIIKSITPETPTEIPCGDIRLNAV
T9 sequence (P35462 whole entry): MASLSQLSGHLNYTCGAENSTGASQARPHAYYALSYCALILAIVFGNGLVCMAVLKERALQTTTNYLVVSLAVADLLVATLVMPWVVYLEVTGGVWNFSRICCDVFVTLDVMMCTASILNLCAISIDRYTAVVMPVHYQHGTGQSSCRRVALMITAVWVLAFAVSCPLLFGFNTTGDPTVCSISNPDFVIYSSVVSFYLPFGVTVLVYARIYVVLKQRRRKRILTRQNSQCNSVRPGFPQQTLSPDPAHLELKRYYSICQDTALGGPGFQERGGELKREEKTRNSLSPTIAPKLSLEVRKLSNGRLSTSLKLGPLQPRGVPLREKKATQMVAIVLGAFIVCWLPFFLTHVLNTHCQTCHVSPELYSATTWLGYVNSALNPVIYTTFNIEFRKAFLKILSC

## [11CH3]Oc1ccccc1N1CCN(CCCN/C(=N\C#N)c2ccccn2)CC1 [[^11C]1]
[1]
  Brain uptake: negligible

## COc1ccccc1N1CCN(CCNC(=O)c2ccncc2)CC1 [Compound 3]
5-HT1B
  Ki: > 10000 nM
5-HT1E
  Ki: > 10000 nM
5-HT1D
  Ki: 1180 nM
5-HT2B
  Ki: 137 nM
5-HT3
  Ki: > 10000 nM
5-HT4
  Ki: > 10000 nM
5-HT5a
  Ki: 1810 nM
5-HT6
  Ki: > 10000 nM
D3R
  Ki: 133 nM
D4R
  Ki: 153 nM
DAT
  Ki: > 10000 nM
NET
  Ki: > 10000 nM
SERT
  Ki: > 10000 nM
NOP
  Ki: > 10000 nM
PBR
  Ki: > 10000 nM
Sigma1R
  Ki: > 10000 nM

## COc1ccccc1N1CCN(CCN(C(=O)C2CCCCC2)c2ccccn2)CC1 [[carbonyl-^11C]WAY100635]
α1-adrenergic receptors [2]
  Ki: 16.4 nM

## O=C(NCCN1CCN(c2ccccc2O)CC1)c1ccccn1 [10a, N-(2-(4-(2-hydroxyphenyl)piperazin-1-yl)ethyl)picolinamide]
other
  melting point: 112 to 113 °C

## O=C(NCCN1CCN(c2ccccc2O)CC1)c1ccncc1 [10b, N-(2-(4-(2-hydroxyphenyl)piperazin-1-yl)ethyl)isonicotinamide]
other
  melting point: 105 to 106 °C

## [11CH3]Oc1ccccc1N1CCN(CCNC(=O)c2ccncc2)CC1 [[^11C]3]
[1]; male, Sprague Dawley, in vivo
  early peak SUV in brain: 4–5
  time of early peak SUV following radiotracer injection: ~ 1 min
[1]; in vivo
  washout from brain: fast
α1-adrenergic receptors [3]; SRTM, cerebellum reference
  decrease of whole brain BP: 63%
α1-adrenergic receptors [3]
  decrease of BP in anterior cingulate cortex: 69%
  decrease of BP in hippocampus: 56%
  decrease of BP in striatum: 34%
  decrease of BP in thalamus: 73%
  decrease of binding in the saliva gland: 68%

## COc1ccccc1N1CCN(CCC(C(=O)N2CCCCCC2)c2ccccc2)CC1 (stereo in doubt) [[^11C](R)-RWAY]
5-HT1A receptors
  Ki: 0.6 nM
5-HT2B receptors
  Ki: 7.2 nM
[4]
  Ki: 10.3 nM
D2
  Ki: 34.5 nM
D3
  Ki: 5.1 nM
D4
  Ki: 15.6 nM

## N#CN=C(NCCCN1CCN(c2ccccc2O)CC1)c1ccccn1 [compound 7, N'-Cyano-N-(3-(4-(2-hydroxyphenyl)piperazin-1-yl)propyl)picolinamidine]
other
  melting point: 137 to 138 °C

## [11CH3]Oc1ccccc1N1CCN(CCNC(=O)c2ccccn2)CC1 [[^11C]2]
[1]
  Brain uptake: negligible
